Assays:
[1] = Compound stability in rat liver microsomes; assay type: in vitro ADME; conditions: for CLint scaled at 5 μM: liver microsomes, pH 7.4, in vivo CLint extrapolated from rat liver microsome incubation; for half-life at 5 μM: read-out: Rat T1/2
Summary of the method: (§1)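 Compounds (5 μM) incubated at 37 °C with human or rat liver microsomes (0.5 mg protein/mL) and 1.0 mM NADPH in 100 mM phosphate buffer pH 7.4, 0.05% DMSO, in duplicate. Sampled 0–60 min, quantified by LC/MS/MS as % of time zero; CLint extrapolated.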

JAK1 (h) = target: T1, JAK1 (h) (Homo sapiens, UniProt P23458); assay: JAK1 (h) kinase assay; assay type: biochemical; conditions: [γ-33P-ATP] 10 μM or KM values; 40 minutes at room temperature
T1 construct: purchased Millipore UK Ltd (assays performed there as a service)
Summary of the method: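 Radiometric filter-binding assay: human JAK1 incubated 40 min at room temperature in 20 mM Tris/HCl pH 7.5, 0.2 mM EDTA, 500 μM peptide substrate, 10 mM Mg acetate, with [γ-33P]ATP at 10 μM or KM. Reaction stopped with phosphoric acid; P30 filtermat scintillation counting.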

[2] = Compound stability in human liver microsomes; assay type: in vitro ADME; conditions: for half-life at 5 μM: human liver microsomes 0.5 mg protein/mL, compound 5 μM, NADPH 1.0 mM, pH 7.4, 37° C., read-out: Human T1/2; for CLint scaled at 5 μM: liver microsomes, pH 7.4, in vivo CLint extrapolated from human liver microsome incubation
Summary of the method: as §1

[3] = rat liver microsomes 0.5 mg protein/mL, compound 5 μM, NADPH 1.0 mM, pH 7.4, 37° C.

T1 sequence (P23458 whole entry): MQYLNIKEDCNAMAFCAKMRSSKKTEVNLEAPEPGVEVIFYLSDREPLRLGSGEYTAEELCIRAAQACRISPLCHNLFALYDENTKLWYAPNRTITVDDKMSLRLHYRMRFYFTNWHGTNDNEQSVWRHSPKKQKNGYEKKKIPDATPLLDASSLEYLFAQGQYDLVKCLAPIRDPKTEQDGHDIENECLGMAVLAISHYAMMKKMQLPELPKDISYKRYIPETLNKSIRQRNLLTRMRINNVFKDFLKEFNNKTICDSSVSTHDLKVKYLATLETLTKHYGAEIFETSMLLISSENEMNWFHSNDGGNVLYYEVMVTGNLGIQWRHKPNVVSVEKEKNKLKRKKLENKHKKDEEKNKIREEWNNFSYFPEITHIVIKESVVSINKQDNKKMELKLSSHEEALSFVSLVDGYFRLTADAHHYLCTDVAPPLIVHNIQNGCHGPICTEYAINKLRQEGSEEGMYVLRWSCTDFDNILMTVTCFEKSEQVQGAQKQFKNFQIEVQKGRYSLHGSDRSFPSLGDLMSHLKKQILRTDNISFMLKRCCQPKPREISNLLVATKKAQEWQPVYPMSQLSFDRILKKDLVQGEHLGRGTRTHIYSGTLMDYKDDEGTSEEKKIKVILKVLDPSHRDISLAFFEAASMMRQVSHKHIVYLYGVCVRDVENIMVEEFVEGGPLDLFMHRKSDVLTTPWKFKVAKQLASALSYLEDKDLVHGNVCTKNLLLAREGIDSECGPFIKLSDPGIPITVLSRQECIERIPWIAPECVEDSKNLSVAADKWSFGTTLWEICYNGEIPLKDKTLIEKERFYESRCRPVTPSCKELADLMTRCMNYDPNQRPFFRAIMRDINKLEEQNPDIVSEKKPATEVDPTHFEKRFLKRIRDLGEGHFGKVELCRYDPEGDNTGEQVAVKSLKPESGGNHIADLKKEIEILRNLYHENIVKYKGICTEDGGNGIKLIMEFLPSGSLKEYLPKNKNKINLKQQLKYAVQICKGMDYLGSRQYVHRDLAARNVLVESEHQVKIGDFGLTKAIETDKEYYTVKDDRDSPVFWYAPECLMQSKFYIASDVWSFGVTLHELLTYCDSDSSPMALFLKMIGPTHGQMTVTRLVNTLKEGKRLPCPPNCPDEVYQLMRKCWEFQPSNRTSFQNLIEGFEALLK

CLint scaled at 5 μM [1] | half-life at 5 μM [1, 3] | IC50 (JAK1 (h)) | half-life at 5 μM [2] | CLint scaled at 5 μM [2] | Rat T1/2 [1, 3] | Compound
5.1 mL/min/kg | 486 min | 1 nM | 196 min | 8.9 mL/min/kg |  | CC(C)(O)Cc1nc2ccc(Nc3ncc(Cl)c(NC4CCN(c5ccc(C#N)nn5)CC4)n3)cn2n1 [Example 79, 6-(4-((5-chloro-2-((2-(2-hydroxy-2-methylpropyl)-[1,2,4]triazolo[1,5-a]pyridin-6-yl)amino)pyrimidin-4-yl)amino)piperidin-1-yl)pyridazine-3-carbonitrile]
528 mL/min/kg | 4.71 min | 0.5 nM | 10.3 min | 168 mL/min/kg |  | CC(C)(O)c1cn2ccc(Nc3ncc(Cl)c(NC4CCN(c5ccc(C#N)cn5)CC4)n3)cc2n1 [Example 70, 6-(4-((5-chloro-2-((2-(2-hydroxypropan-2-yl)imidazo[1,2-a]pyridin-7-yl)amino)pyrimidin-4-yl)amino)piperidin-1-yl)nicotinonitrile]
38.2 mL/min/kg | 65 min | 0.7 nM | 257 min | 6.8 mL/min/kg |  | CC(C)(O)Cc1nc2cc(Nc3ncc(Cl)c(NC4CCN(c5ccc(C#N)nn5)CC4)n3)ccn2n1 [Example 77, 6-(4-((5-chloro-2-((2-(2-hydroxy-2-methylpropyl)-[1,2,4]triazolo[1,5-a]pyridin-7-yl)amino)pyrimidin-4-yl)amino)piperidin-1-yl)pyridazine-3-carbonitrile]
732 mL/min/kg | 3.4 min | 0.4 nM | 15.6 min | 112 mL/min/kg |  | N#Cc1ccc(N2CCC(Nc3nc(Nc4ccc5c(c4)nnn5CC4CC4)ncc3Cl)CC2)nc1 [Example 60, 6-(4-((5-chloro-2-((1-(cyclopropylmethyl)-1H-benzo[d][1,2,3]triazol-5-yl)amino)pyrimidin-4-yl)amino)piperidin-1-yl)nicotinonitrile]
7.3 mL/min/kg | 340 min | 0.9 nM | 1370 min | 1.3 mL/min/kg |  | CC(C)(O)c1nc2cc(Nc3ncc(Cl)c(NC4CCN(c5ccc(C#N)nn5)CC4)n3)ccn2n1 [Example 55, 6-(4-((5-chloro-2-((2-(2-hydroxypropan-2-yl)-[1,2,4]triazolo[1,5-a]pyridin-7-yl)amino)pyrimidin-4-yl)amino)piperidin-1-yl)pyridazine-3-carbonitrile]
86.2 mL/min/kg | 28.8 min | < 0.3 nM | 128 min | 13.6 mL/min/kg |  | CC(O)Cn1cnc2cc(Nc3ncc(Cl)c(NC4CCN(c5ccc(C#N)cn5)CC4)n3)ccc21 (stereo not drawn) [Example 61, 6-(4-((5-chloro-2-((1-(2-hydroxypropyl)-1H-benzo[d]imidazol-5-yl)amino)pyrimidin-4-yl)amino)piperidin-1-yl)nicotinonitrile]
214 mL/min/kg | 11.6 min | 1 nM | 42 min | 41.3 mL/min/kg |  | CC(C)(O)Cc1cn2cc(Nc3ncc(Cl)c(NC4CCN(c5ccc(C#N)cn5)CC4)n3)ccc2n1 [Example 73, 6-(4-((5-chloro-2-((2-(2-hydroxy-2-methylpropyl)imidazo[1,2-a]pyridin-6-yl)amino)pyrimidin-4-yl)amino)piperidin-1-yl)nicotinonitrile]
 |  | 0.6 nM | 56.3 min | 30.9 mL/min/kg | ∞ | CCC1CN(c2ccc(C#N)nn2)CCC1Nc1nc(Nc2ccn3c(C)cnc3c2)ncc1Cl (stereo not drawn) [Example 3, 6-(4-((5-chloro-2-((3-methylimidazo[1,2-a]pyridin-7-yl)amino)pyrimidin-4-yl)amino)-3-ethylpiperidin-1-yl)pyridazine-3-carbonitrile]
130 mL/min/kg | 19 min | 0.3 nM | 10.6 min | 164 mL/min/kg |  | CC(C)(O)c1cnc2cc(Nc3ncc(Cl)c(NC4CCN(c5ccc(C#N)cn5)CC4)n3)ccn12 [Example 68, 6-(4-((5-chloro-2-((3-(2-hydroxypropan-2-yl)imidazo[1,2-a]pyridin-7-yl)amino)pyrimidin-4-yl)amino)piperidin-1-yl)nicotinonitrile]
13.4 mL/min/kg | 186 min | 0.4 nM | 117 min | 14.9 mL/min/kg |  | Cc1cnc2cc(Nc3ncc(Cl)c(NC4CCN(c5ccc(C#N)nn5)CC4)n3)ccn12 [Example 12, 6-(4-((5-chloro-2-((3-methylimidazo[1,2-a]pyridin-7-yl)amino)pyrimidin-4-yl)amino)piperidin-1-yl)pyridazine-3-carbonitrile]
89.4 mL/min/kg | 27.8 min | < 0.3 nM | 108 min | 16.1 mL/min/kg |  | Cn1nnc2cc(Nc3ncc(Cl)c(NC4CCN(c5ccc(C#N)nn5)CC4)n3)ccc21 [Example 47, 6-(4-((5-chloro-2-((l-methyl-1H-benzo[d][1,2,3]triazol-5-yl)amino)pyrimidin-4-yl)amino)piperidin-1-yl)pyridazine-3-carbonitrile]
50.9 mL/min/kg | 48.8 min | 0.5 nM | 47.7 min | 36.5 mL/min/kg |  | CC(O)Cc1nc2cc(Nc3ncc(Cl)c(NC4CCN(c5ccc(C#N)nn5)CC4)n3)ccn2n1 (stereo not drawn) [Example 56, 6-(4-((5-chloro-2-((2-(2-hydroxypropyl)-[1,2,4]triazolo[1,5-a]pyridin-7-yl)amino)pyrimidin-4-yl)amino)piperidin-1-yl)pyridazine-3-carbonitrile]
10.1 mL/min/kg | 246 min | 0.6 nM | 121 min | 14.4 mL/min/kg |  | CC(C)(O)c1nc2cc(Nc3ncc(Cl)c(NC4CCN(c5ccc(C#N)cn5)CC4)n3)ccn2n1 [Example 39, 6-(4-((5-chloro-2-((2-(2-hydroxypropan-2-yl)-[1,2,4]triazolo[1,5-a]pyridin-7-yl)amino)pyrimidin-4-yl)amino)piperidin-1-yl)nicotinonitrile]
52.4 mL/min/kg | 47.4 min | 1 nM | 36.2 min | 48.1 mL/min/kg |  | CCC1CN(c2ccc(C#N)cn2)CCC1Nc1nc(Nc2ccn3c(C)cnc3c2)ncc1Cl (stereo not drawn) [Example 2, 6-(4-((5-chloro-2-((3-methylimidazo[1,2-a]pyridin-7-yl)amino)pyrimidin-4-yl)amino)-3-ethylpiperidin-1-yl)nicotinonitrile]
157 mL/min/kg | 15.8 min | 1 nM | 35.3 min | 49.3 mL/min/kg |  | CC(C)(O)Cc1nc2cc(Nc3ncc(Cl)c(NC4CCN(c5ccc(C#N)cn5)CC4)n3)ccn2n1 [Example 78, 6-(4-((5-chloro-2-((2-(2-hydroxy-2-methylpropyl)-[1,2,4]triazolo[1,5-a]pyridin-7-yl)amino)pyrimidin-4-yl)amino)piperidin-1-yl)nicotinonitrile]
 |  | 0.5 nM |  |  |  | Cc1nc2cc(Nc3ncc(Cl)c(NC4CCN(c5ccc(C#N)cn5)CC4)n3)ccn2n1 [Example 32, 6-(4-((5-chloro-2-((2-methyl-[1,2,4]triazolo[1,5-a]pyridin-7-yl)amino)pyrimidin-4-yl)amino)piperidin-1-yl)nicotinonitrile]

Source: patent US10683297B2 (Sunshine Lake Pharma Co., Ltd., priority 2017, dated 2020)
